Reference: BindingDB's records for doi:10.1074/jbc.M113.487777 (McGill University, 2013)
pKd: −log10 of the molar value.

Biological target: T1, Inositol-pentakisphosphate 2-kinase (Mouse-ear cress, UniProt Q93YN9)
T1 sequence (Q93YN9 whole entry): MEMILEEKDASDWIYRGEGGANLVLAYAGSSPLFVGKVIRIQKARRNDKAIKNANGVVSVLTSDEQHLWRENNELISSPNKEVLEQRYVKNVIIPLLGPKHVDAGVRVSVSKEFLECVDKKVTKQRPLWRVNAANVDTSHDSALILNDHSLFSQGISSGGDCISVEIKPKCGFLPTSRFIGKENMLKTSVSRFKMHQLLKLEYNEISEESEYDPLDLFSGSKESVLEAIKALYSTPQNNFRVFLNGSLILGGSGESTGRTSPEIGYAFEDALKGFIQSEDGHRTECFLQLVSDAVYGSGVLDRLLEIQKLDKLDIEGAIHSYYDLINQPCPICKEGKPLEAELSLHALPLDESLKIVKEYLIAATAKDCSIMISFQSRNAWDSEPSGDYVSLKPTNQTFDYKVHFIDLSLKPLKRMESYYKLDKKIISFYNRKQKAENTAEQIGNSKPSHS
Experiment: Isothermal Titration Calorimetry (ITC)
Conditions: pH 7.5; 25 °C
Procedure: Experiments were performed on a MicroCal iTC200 titration calorimeter (GE Healthcare). Wild-type IPK1 was purified and dialyzed into ITC buffer containing 50 mM HEPES (pH 7.5), 6 mM MgCl2, 150 mM NaCl, and 1 mM tris(2-carboxyethyl)phosphine (pH 7.0). After protein dialysis was complete, dialysis buffer was used to dissolve the ligands, IP, and AMP-PNP (Jena Bioscience). Titration experiments were performed at 25 °C with 100 uM IPK1 and1mM AMP-PNP in the cell and 1-2 mM IP in the syringe to ensure a final IP:IPK1 molar ratio of at least 2:1. Titration experiments were performed at least twice for each IP, and one set was chosen to represent data.

Row | pKd | Structure (SMILES)
1 | 4.74 | O=P(O)(O)O[C@H]1[C@H](O)[C@@H](OP(=O)(O)O)[C@H](OP(=O)(O)O)[C@@H](OP(=O)(O)O)[C@H]1O [1,3,4,5-Inositol tetrakisphosphate (1,3,4,5-IP4)]
2 | 5.12 | O=P(O)(O)O[C@H]1[C@H](OP(=O)(O)O)[C@@H](OP(=O)(O)O)[C@@H](O)[C@@H](O)[C@@H]1OP(=O)(O)O [3,4,5,6-Inositol tetrakisphosphate (3,4,5,6-IP4)]
3 | 5.09 | O=P(O)(O)O[C@@H]1[C@@H](OP(=O)(O)O)[C@H](OP(=O)(O)O)[C@@H](O)[C@@H](O)[C@H]1OP(=O)(O)O [1,4,5,6-Inositol tetrakisphosphate (1,4,5,6-IP4)]
4 | 4.57 | O=P(O)(O)O[C@@H]1[C@@H](O)[C@H](OP(=O)(O)O)[C@@H](OP(=O)(O)O)[C@@H](O)[C@H]1OP(=O)(O)O [1,3,4,6-Inositol tetrakisphosphate (1,3,4,6-IP4)]
5 | 6.22 | O=P(O)(O)O[C@@H]1[C@@H](OP(=O)(O)O)[C@H](OP(=O)(O)O)[C@H](O)[C@H](OP(=O)(O)O)[C@H]1OP(=O)(O)O [Inositol 1,3,4,5,6-pentakisphosphate (IP5)]
